In one data set the test system is miR-214. The data set is described as follows: qRT-PCR of miR-214 expression after antisense 2'-O-methyl oligonucleotide transfection. Type of data set: cell-based, human. Particulars: A2780CP cells, 150 pMol per well, 72 h transfection. On the procedure: (§1) FIG. 4. […] (B) MTT assay. […] (C) Flow cytometry. Indicated cells were treated with cisplatin or DMSO for 12 h and the subG1 population was identified by flow cytometry.
Expression of miRNAs was also analysed by RNase protection or mirVana qRT-PCR miRNA detection assay. For RNase protection assay, enriched small RNA was purified using the miRVana miRNA isolation Kit (Ambion). […] Probe hybridization and RNase protection were then carried out using the mirVana™ miRNA detection kit (Ambion) according to manufacturer's instructions. After hybridization and RNase treatment, the double-strand products were resolved in a 15% polyacrylamide 8 M urea denaturing gel and visualized using phospho imaging and autoradiography. mirVanaqRT-PCR was performed according to the manufacturer's protocol (Ambion). PCR products were analyzed by electrophoresis, on a 7.5% polyacrylamide gel in 0.5×TBE and visualized by ethidium bromide staining.
2′-O-methyl (2-O-me) oligoribonucleotides were synthesized by Integrated DNA Technologies. […] […]-3′ (SEQ ID NO: 5) and 5′-[…]-3′ (SEQ ID NO: 6). 2′-O-me-scrambled miR (5′-[…]-3′) (SEQ ID NO: 7) was used as a control. Cells were grown in 6-well plate ([…]) for 24 hand transfected with 150 pMol of 2′-O-me oligoribonucleotides per well using Lipofectamine 2000. RNA and protein were extracted after 72 h transfection.
In general terms: In qPCR the cycle at which signal appears reflects the starting amount.

The test system of the next data set is A2780CP cells. Put plainly: MTT cell viability and flow cytometry apoptosis in A2780CP cells. Type of data set: cell-based, human. On the procedure: as §1
The cells transfected with 2′-O-methyl-scramble-miR were used as control. […] Further, the cells were treated with cisplatin or vehicle DMSO.
(Flow cytometry measures light scatter and fluorescence of single cells or particles in a stream.)

For data set [1], the system named is PTEN. The data set is described as follows: Immunoblotting of PTEN protein in A2780CP cells after knockdown of miR-214. Type of data set: cell-based, human. The following applies: 150 pM/well, 72 h. The method, then: (§2) PTEN mRNA level was measured by RT-PCR (panel 8). U6 (panel 7) and GAPDH (bottom panel) were used for controls. […] Anti-mi[…] and scramble 2'-O-methyl oligonucleotide were used as controls. After incubation of 72 h, cells were lysed and immunoblotted with indicated antibodies (C). […] Following 36 h incubation, cells were subjected to luciferase assay. The data are the means of three independent experiments, and error bars indicate standard deviations. (F) Representative tumor and normal tissue lysates were analyzed by Western blot with indicated antibodies (panels 1 and 2). […] U6 was used as a control (bottom panel). […] Cells were grown in 6-well plate ([…]) for 24 hand transfected with 150 pMol of 2'-O-me oligoribonucleotides per well using Lipofectamine 2000. RNA and protein were extracted after 72 h transfection. […] The cells transfected with pcDNA3.[…][…]-Togo vector alone and pcDNA3.[…][…]-Topo-miR-199a* were used as controls. […]). […] PTEN protein was examined in a same series of normal ovary and primary ovarian tumor specimens for expression of miRNAs (FIG. 2F).

A further data set deals with Akt. The data set is described as follows: Immunoblotting of phosphorylation of Akt and Akt substrates in A2780CP cells after knockdown of miR-214. Format: cell-based, human. Particulars: 150 pM/well, 72 h. On the procedure: as §2
Background: In western blotting, separated proteins are transferred to a membrane and probed.

Data set [2] relates to PTEN. The following applies: ovarian cancer, reference 25; cited from earlier work.

Take “2′-O-methyl-anti-miR-214: antisense 2′-O-methyl oligoribonucleotide targeting miR-214, 5′-CUGCCUGUCUGUGCCUGCUGU-3′ (SEQ ID NO: 5) (all 2'-O-methyl, backbone not given here)”: the “level of miR-214” value in the data set on miR-214 was “significantly decreased”. In the data set with A2780CP cells (cisplatin 20 uM, MTT and flow cytometry), the “sensitization to cisplatin-induced apoptosis” value is given as “considerably sensitized A2780CP cells to cisplatin-induced apoptosis”. In addition, the “reduction of cell survival” value in the data set with A2780CP cells (knockdown of miR-214 alone, cell viability analysis) is on record as “about 20%”. In addition, the “protein level of PTEN” value in the data set with PTEN [1] was “increased the protein level of PTEN”. Moreover, the “phosphorylation levels of Akt and Akt substrates GSK3β and p70S6K” value with Akt is “decreased”.
On to `Nc1ncn([C@H]2C[C@H](O)[C@@H](CO)O2)c(=O)n1` [5-aza-2′ deoxycytidine], for which the PTEN protein expression entry with PTEN [2] was “failed to restore PTEN protein expression”.

(Values after patent US8906869B2 (University of South Florida, priority 2007, dated 2014).)
